How the values were obtained:
[1] = tested on: rodent model of fibromyalgia; experiment: Rodent model of fibromyalgia (reserpine), mechanical allodynia, CMX-020 and Pregabalin; format: in vivo, male Sprague Dawley rats
[2] = tested on: rodent model of spinal nerve ligation; experiment: Spinal nerve ligation model, mechanical allodynia, CMX-020 and Duloxetine; format: in vivo, male Sprague Dawley rats
Experimental: In FIGS. 14 and 15, groups of male Sprague Dawley rats underwent a spinal nerve ligation method of the left L5 and L6 spinal nerves, inducing a model of peripheral neuropathic pain. 1 weeks later treatment with CMX-020 and Duloxetine were administered either alone or in combination at various combinational doses and efficacy was tested using mechanical allodynia pain thresholds (Von Frey Filaments, up-down method). The method of Chou-Talalay and CompuSyn computer software were used to automate analysis of dose effect data for each individual drug and their combination. […] The fold reduction of Duloxetine in combination with CMX-020 is greater than 2-fold in efficacy ranges at and greater than 20% (FIG. 15).

[3] = tested on: rodent model of Chemotherapeutic induced pain; experiment: Chemotherapeutic (paclitaxel) induced pain model, mechanical allodynia, CMX-020 and Duloxetine; format: in vivo, male Sprague Dawley rats
Experimental: In FIGS. 16 and 17, groups of male Sprague Dawley rats received four daily consecutive injections of paclitaxel (1 mg/kg, ip), followed by a second series of four daily injections one week after the first injection, inducing a model of chemotherapeutic-induced peripheral neuropathy Animals were tested 2-3 days after receiving the last injection of paclitaxel with treatment of CMX-020 and Duloxetine administered either alone or in combination at various combinational doses and efficacy was tested using mechanical allodynia pain thresholds (Von Frey Filaments, up-down method). The method of Chou-Talalay and CompuSyn computer software were used to automate analysis of dose effect data for each individual drug and their combination. […] The fold reduction of Duloxetine in combination with CMX-020 is greater than 2-fold in efficacy ranges at and greater than 20% (FIG. 17).

[4] = tested on: rodent model of osteoarthritis; experiment: Rodent model of osteoarthritis (MIA), mechanical allodynia, CMX-020 and Tramadol; format: in vivo, male Sprague Dawley rats
[5] = tested on: post-operative pain model; experiment: Post-operative pain model (hindpaw incision), mechanical allodynia (Von Frey filament); format: in vivo, male Sprague Dawley rats; details: CMX-020 intraduodenally at various doses in DHA TG, 3 hours post-surgery
Experimental: In FIG. 7, groups of male Sprague Dawley rats were administered CMX-020 intraduodenally at various doses using high purity DHA in triglyceride form as the delivery vehicle. CMX-020 was measured in plasma to determine its concentrations immediately after the efficacy endpoint. Prior to administration, the rat's hindpaw was surgically incised and sutured. 3 hours post-surgery the rats were subjected to mechanical allodynia (Von Frey filament) assessment to quantify the analgesic effect of CMX-020 (% MPE=post drug threshold−baseline threshold/cutoff threshold−baseline threshold×100).

clinical = details: both, human, in vivo, po
[6] = Plasma exposure of CMX-020 from enterically coated softgels with DHA TG vehicle; format: in vivo, male cynomolgus monkey
Experimental: In FIG. 5, groups of male cynomolgus monkey were administered CMX-020 (40 mg total dose) in enterically coated softgels at 10, 5 and 2.5% (w/w) using high purity DHA in triglyceride form as the delivery vehicle. CMX-020 was measured through time in plasma to determine its concentrations. FIG. 5 illustrates that the systemic exposure of CMX-020 in DHA TG at various concentrations provides suitable systemic exposure for more than 12 hours. In this study, the optimal concentration was 5% displaying an absolute bioavailability of 20%.

[7] = efficacy ranges at and greater than 20%

CC(C)C[C@H](CN)CC(=O)O [Pregabalin, reference compound]
fold reduction of Pregabalin in combination with CMX-020 ([1]; efficacy ranges at and greater than 35%): greater than 2 fold

CNCC[C@H](Oc1cccc2ccccc12)c1cccs1 [Duloxetine, reference compound]
fold reduction of Duloxetine in combination with CMX-020 [2, 7]: greater than 2 fold | fold reduction of Duloxetine in combination with CMX-020 [3, 7]: greater than 2 fold

CCCCCC(=O)N(CC/C=C\C/C=C\C/C=C\CCCC(=O)NC1CC1)C(C)C [CMX-020]
analgesic effect of the combinational therapy (isobologram) ([4]; in combination with Tramadol, 2 weeks after MIA): greater than a simple additive effect | relation of systemic exposure to analgesic efficacy (% MPE) [5]: positively correlates | analgesic effect of the combinational therapy (isobologram) ([2]; in combination with Duloxetine): greater than a simple additive effect | Tmax (clinical): 3.5 to 5.5 h | analgesic effect of the combinational therapy (isobologram) ([1]; co-administered with Pregabalin): greater than a simple additive effect | analgesic effect of the combinational therapy (isobologram) ([3]; in combination with Duloxetine): greater than a simple additive effect | duration of suitable systemic exposure ([6]; CMX-020 40 mg total dose at 10, 5 and 2.5% (w/w) in DHA TG, monkey): more than 12 hours | bioavailability ([6]; male, cynomolgus monkey, plasma, oral, CMX-020 40 mg total dose, 5% (w/w) in DHA TG, read-out: absolute bioavailability): 20%

COc1cccc(C2(O)CCCCC2CN(C)C)c1 (stereo not drawn) [Tramadol, reference compound]
fold reduction of Tramadol in combination with CMX-020 ([4]; efficacy ranges at and greater than 10%): greater than 2 fold
